Results reported in paper PMC11973282, “RAS70 peptide targets multiforme glioblastoma by binding to the plasma membrane heat shock protein HSP70” (Frontiers in Oncology, 2025).

Assays:
[1] = test system: U251 cells (lower chamber; HUVEC and astrocytes barrier); experiment: Transwell BBB model, peptide passage and accumulation in tumor cells; conditions: transwell BBB model: HUVEC (5×10^5) and astrocytes (5×10^5) in upper chamber, U251 (1×10^4) in lower chamber; FITC-labeled peptide; 36 hours; confocal microscopy count; M ± SE, 3 independent experiments
Procedure: (§1) Then, a peptide labeled with a fluorescent label was introduced into the upper chamber and co-incubation was carried out for 12, 24 and 36 hours. At the end of the incubation, the tumor cells were washed with cold phosphate-buffered saline (PBS) and fixed with a 4% solution of paraformaldehyde in PBS. Nuclei were stained with 4’,6-diamidino-2-phenylindole (DAPI). Fluorescent images were obtained using a Leica TCS SP8 confocal microscope (Leica, Germany). To avoid possible cross-interference of different fluorochromes, images for DAPI and FITC were obtained using a sequential sample scanning method. Fluorescently labeled cells were counted in the lower chamber. To estimate the mHsp70-mediated uptake of chaperone-targeted peptides tumor cells prior to incubation were pre-treated with anti-Hsp70 monoclonal antibodies SPA-810 (1:250, Stressgen) and SPA-815 (1:250 Stressgen). To exclude integrin (αvβ3, αvβ5)-mediated penetration of RAS70 tumor cells prior to incubation with peptides were pre-treated with anti- αvβ3 (1:200 clone LM609, ZMS1030, Sigma-Aldrich, USA), -αvβ5 (1:200 clone P1F6, MAB1961Z, Sigma-Aldrich, USA) monoclonal antibodies.
(§2) Then, a peptide labeled with a fluorescent dye (FITC) was introduced into the upper chamber and co-incubation was carried out for 12, 24 and 36 hours. At the end of the incubation, the tumor cells were washed with cold phosphate-buffered saline (PBS) and fixed with a 4% solution of paraformaldehyde in PBS. Nuclei were stained with 4’,6-diamidino-2-phenylindole (DAPI).
(§3) Data from 3 independent experiments are presented as M ± SE. […] Data from 3 independent experiments are presented as M ± SE. ** p < 0.01 for testing mean expression levels.

[2] = test system: GL261 cells (lower chamber; HUVEC and astrocytes barrier); experiment: as above; conditions: transwell BBB model: HUVEC (5×10^5) and astrocytes (5×10^5) in upper chamber, GL261 (1×10^4) in lower chamber; FITC-labeled peptide; 36 hours; confocal microscopy count; M ± SE, 3 independent experiments
Procedure: as §1, §2, §3

## CC(C)C[C@H](NC(=O)[C@H](CC(C)C)NC(=O)[C@H](CC(N)=O)NC(=O)[C@H](CC(N)=O)NC(=O)[C@H](CC(=O)O)NC(=O)[C@H](CCCCN)NC(=O)[C@@H](N)[C@@H](C)O)C(=O)NCC(=O)N[C@@H](CCCNC(=N)N)C(=O)N[C@@H](Cc1ccccc1)C(=O)N[C@@H](CCC(=O)O)C(=O)N[C@@H](CC(C)C)C(=O)N[C@@H](CO)C(=O)NCC(=O)O [TKD]
[1]
  fluorescently labeled tumor cells in the lower chamber: 345 ± 51 cells
[2]
  fluorescently labeled tumor cells in the lower chamber: 289 ± 51 cells
